Key:
[1] = system: MSSE CANWARD-2008 81388; assay: MIC, microbroth dilution; type: cell-based; settings: standalone
Description: (§1) Antimicrobial Susceptibility Assay. The in vitro antimicrobial activity of all compounds/antibiotics against a panel of bacteria was evaluated by microbroth dilution method in accordance with the Clinical and Laboratory Standards Institute (CLSI) guidelines. Overnight grown bacterial cultures were diluted in saline to achieve a 0.5 McFarland turbidity, followed by 1:50 dilution in Mueller-Hinton broth (MHB) for inoculation to a final concentration of approximately 5×10^5CFU/mL. The antimicrobial agents were 2-fold serially diluted in MHB in a 96-well plate and incubated at 37° C. with equal volumes of inoculum for 18 h. The lowest concentration that prevented the visible growth of bacteria was defined as the MIC for each antimicrobial agent. The broth with or without bacterial cells was used as positive or negative control, respectively.

[2] = system: β-lactamase-harboring MDR P. aeruginosa clinical isolates; assay: Triple combination susceptibility (β-lactam + avibactam + compound 2); type: cell-based, Pseudomonas aeruginosa
Source text: The diazabicyclooctane β-lactamase inhibitor, avibactam, is able to inhibit a wide range of serine β-lactamases (class A, C, and D) but not metallo-β-lactamases (class B) (50, 51).^50,51 However, the high concentration of avibactam required to neutralize the effects of β-lactamase enzymes in these phenotypes is indicative of concomitant permeability barriers in the isolates, such as reduced porin uptake. […] The results of this study are shown in (FIG. 6). All isolates were resistant to all three β-lactam antibiotics used for the study. […] As expected, the study with meropenem was slightly different from others.
as §1
Checkerboard Assay. Combination studies with different antibiotics were performed in 96-well plates as previously described (22). Briefly, the antibiotic of interest was serially diluted in MHB along the abscissa while the adjuvant (newly synthesized conjugates) was serially diluted in MHB along the ordinate. This creates a 10×7 matrix wherein each well consists of a combination of different antibiotic and adjuvant concentrations. Overnight grown bacterial cultures were diluted in saline to achieve a 0.5 McFarland turbidity, followed by 1:50 dilution in Mueller-Hinton broth (MHB) for inoculation to a final concentration of approximately 5×10^5CFU/mL. Equal volume of this bacterial culture was then added to each well and incubated at 37° C. for 18 h. After incubation, the plates were read on EMax® Plus microplate reader (Molecular Devices, Sunnyvale, Calif., USA) at 590 nm. MIC was recorded as wells with the lowest concentration of drugs with no bacterial growth. The fractional inhibitory concentration (FIC) for each antibiotic was calculated by dividing the MIC of the antibiotic in the presence of adjuvant by the MIC of the antibiotic alone. Similarly, the FIC of adjuvant was calculated by dividing the MIC of the adjuvant in the presence of antibiotic by the MIC of the adjuvant alone. FIC index is the sum of both FICs. FIC indices of <0.5 were deemed synergistic; 0.5-4, no interaction; and >4, antagonistic.

[3] = humans; cited from earlier work

Row | Molecule | MIC [1] [µg/mL] | effect on activity of ceftolozane-tazobactam combinations ([2]; all β-lactamase-harboring isolates tested) | isolates below aztreonam susceptible breakpoint ([2]; aztreonam + avibactam + compound 2, 8 μM each) | isolates reaching aztreonam susceptibility breakpoint (≤8 μg/ml) ([2]; aztreonam + single adjuvant 8 μM) | isolates below ceftazidime susceptible breakpoint ([2]; ceftazidime + avibactam + compound 2, 8 μM each) | isolates reaching ceftazidime susceptibility breakpoint (≤8 μg/ml) ([2]; ceftazidime + single adjuvant 8 μM) | isolates reaching meropenem susceptible levels ([2]; meropenem + avibactam + compound 2, 8 μM each) | isolates reaching meropenem susceptibility level ([2]; meropenem + single adjuvant 8 μM) | potentiation of ceftazidime ([2]; single adjuvant at 8 μM, five isolates) [fold] | achievable plasma concentration [3] [µg/mL]
1 | 5-O-(Octylcyclam)-tobramycin.9TFA [Compound 2] | 16 | did not improve the activity | all five isolates | two out of five | all isolates | one of five | three out of five | zero of five | 4 | –
2 | C[C@@H](O)[C@H]1C(=O)N2C(C(=O)O)=C(S[C@@H]3CN[C@H](C(=O)N(C)C)C3)[C@H](C)[C@H]12 [Meropenem] | – | – | – | – | – | – | – | – | – | > 8

From patent US20210290648A1, “Potentiation of B-Lactam Antibiotics and B-Lactam/B-Lactamase Inhibitor Combinations Against Multidrug and Extensively Drug-Resistant Pseudomonas Aeruginosa Using Non-Ribosomal Tobramycin-Cyclam Conjugates” (University of Manitoba, priority 2018, published 2021)
